Data from ChEMBL document CHEMBL5137004, “An overview on the synthetic urease inhibitors with structure-activity relationship and molecular docking” (Eur J Med Chem, 2022).

Target: T1, Urease (Canavalia ensiformis, UniProt P07374)
T1 sequence (P07374 whole entry): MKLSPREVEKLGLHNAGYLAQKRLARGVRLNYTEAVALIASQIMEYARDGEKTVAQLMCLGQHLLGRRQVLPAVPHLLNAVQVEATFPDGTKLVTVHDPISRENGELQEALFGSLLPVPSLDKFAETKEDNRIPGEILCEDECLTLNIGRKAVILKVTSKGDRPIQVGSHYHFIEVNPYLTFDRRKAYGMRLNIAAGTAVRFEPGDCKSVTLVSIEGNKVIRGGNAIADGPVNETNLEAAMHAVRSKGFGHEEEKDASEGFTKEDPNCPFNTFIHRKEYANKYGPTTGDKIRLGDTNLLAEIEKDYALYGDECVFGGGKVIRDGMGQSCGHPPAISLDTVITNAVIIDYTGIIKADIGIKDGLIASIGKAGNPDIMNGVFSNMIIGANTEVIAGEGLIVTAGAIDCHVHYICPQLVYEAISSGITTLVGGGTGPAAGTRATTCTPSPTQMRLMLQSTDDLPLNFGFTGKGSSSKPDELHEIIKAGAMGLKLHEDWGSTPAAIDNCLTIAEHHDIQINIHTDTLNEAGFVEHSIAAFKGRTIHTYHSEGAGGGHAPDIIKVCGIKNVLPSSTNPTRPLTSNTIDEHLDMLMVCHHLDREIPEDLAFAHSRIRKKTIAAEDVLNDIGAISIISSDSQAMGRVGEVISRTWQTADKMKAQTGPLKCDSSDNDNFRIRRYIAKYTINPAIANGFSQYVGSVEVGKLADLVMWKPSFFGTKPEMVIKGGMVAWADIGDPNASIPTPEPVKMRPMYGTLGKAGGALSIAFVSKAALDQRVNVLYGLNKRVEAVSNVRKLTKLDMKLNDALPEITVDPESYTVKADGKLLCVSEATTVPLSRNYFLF
Experiment: Inhibition of jack bean urease assessed as reduction on ammonia production using urea as substrate incubated for 30 mins by indophenol reagent based UV-vis spectrophotometer
Conditions: not given
Work on `Cc1nc2cc(Cl)c(Cl)cc2n1Cc1nnc(S)n1-c1ccc([N+](=O)[O-])cc1` yielded an IC50 of 0.0294 µM. Compound `S=P(Nc1ccc(CCc2ccc(NP(=S)(c3ccccc3)c3ccccc3)cc2)cc1)(c1ccccc1)c1ccccc1` has an IC50 of 0.00191 µM. For `Cc1nc2cc(Cl)c(Cl)cc2n1CC(=O)NNC(=S)Nc1ccc([N+](=O)[O-])cc1`, the IC50 was 0.0354 µM.

Test system: not listed separately
Experiment: Inhibition of urease (unknown origin)
Conditions: not given
With `O=c1c2ccccc2nc(Cc2ccccc2)n1Cc1nnc(Nc2ccc([N+](=O)[O-])cc2)s1` the IC50 was 3.3 µg/mL. Work on `CCc1nc2ccccc2c(=O)n1CC(=O)NNC(=O)c1cc2cc(Br)ccc2oc1=O` yielded an IC50 of 1.26 µg/mL.

Same assay, conditions: read-out: IC50
For `O=C(N/N=C/c1c(O)ccc2c(=O)cc(-c3ccc(F)cc3)oc12)c1ccccc1`, the IC50 was 1.21 µM. In the case of `COc1ccc(/C=C/C(=O)c2ccc(O)cc2)cc1`, the IC50 is reported as 11.5 µM. For `CC(=O)NO` [ACETOHYDROXAMIC ACID], the IC50 was 29.2 µM. `O=[N+]([O-])c1ccc(S(=O)(=O)Nc2nnc(-c3ccc(C(c4c[nH]c5ccc(Br)cc45)c4c[nH]c5ccc(Br)cc45)cc3)s2)c([N+](=O)[O-])c1` showed an IC50 of 0.5 µM. Compound `CC(C)=CCN1C(=O)/C(=N/Nc2ccccc2)c2ccccc21` has an IC50 of 0.71 µM. With `Nc1cccc(C(c2c(O)c3ccccc3oc2=O)c2c(O)c3ccccc3oc2=O)c1` the IC50 was 74.3 µM. For `O=C1Nc2ccc(Cl)cc2/C1=C\c1ccc(C(=O)N/N=C/c2c(O)cc(O)cc2O)cc1`, the IC50 was 13 µM. In the case of `O=[N+]([O-])c1ccc(S(=O)(=O)N/N=C(\c2ccccc2)c2ccc(O)cc2)cc1`, the IC50 is reported as 3.9 µM. `O=C(CC(O)c1cc(Cl)ccc1OCc1ccccc1)NO` (configuration not stated) showed an IC50 of 0.15 µM. Work on `O=C1NC(=S)NC(=O)C1=CNc1cc([N+](=O)[O-])ccc1C(=O)O` yielded an IC50 of 8.53 µM. In the case of `COc1ccc(-c2nc(C(=O)NC3CCCCC3)cs2)cc1`, the IC50 is reported as 1.82 µM. `Cc1ccc(/C=N/Nc2nc(-c3ccc(Br)cc3)cs2)cc1` showed an IC50 of 0.11 µM. With `COc1ccc(C(=O)NNC(=O)c2cc(Cl)cc(Cl)c2)cc1` the IC50 was 0.87 µM.

Target: T1, Urease
Experiment: Inhibition of jack bean urease assessed as reduction on ammonia production using urea as substrate incubated for 30 mins by indophenol method
Conditions: not given
For `CCCCCCCCCCCCCC(=O)NC(=S)Nc1cccc(Cl)c1`, the IC50 was 0.0391 µM. With `NC(N)=S` [THIOUREA] the IC50 was 18.2 µM.

Target: T1, Urease
Experiment: Inhibition of jack bean urease assessed as reduction on ammonia production using urea as substrate incubated for 15 mins by indophenol reagent based microplate reader assay
Conditions: not given
Compound `COc1ccc(-c2c/c(=N\C(=S)Nc3cccc([N+](=O)[O-])c3)c3c(O)cc(O[C@@H]4O[C@H](CO)[C@@H](O)[C@H](O)[C@H]4O[C@@H]4O[C@@H](C)[C@H](O)[C@@H](O)[C@H]4O)cc3o2)cc1O` has an IC50 of 12.6 µM. `COc1ccc2cc([C@@H](C)c3nc4cc(Cl)ccc4[nH]3)ccc2c1` showed an IC50 of 36 µM. Work on `NS(=O)(=O)c1ccc(NC=C2C(=O)NC(=S)NC2=O)cc1` yielded an IC50 of 3.76 µM. With `C[C@H](O)c1nc2ccccc2[nH]1` the IC50 was 22 µM. `Oc1ccc(C2Oc3cc(O)cc(O)c3/C(=N/C(=S)Nc3ccccc3)C2O)c(O)c1` (configuration not stated) showed an IC50 of 7.37 µM. Compound `COc1ccc(-c2c/c(=N\C(=O)Oc3ccccc3)c3c(O)cc(O[C@@H]4O[C@H](CO)[C@@H](O)[C@H](O)[C@H]4O[C@@H]4O[C@@H](C)[C@H](O)[C@@H](O)[C@H]4O)cc3o2)cc1O` has an IC50 of 15.6 µM.

Test system: not listed separately
Experiment: Antioxidant activity assessed as DPPH radical scavenging activity incubated for 30 mins
Format: functional
Conditions: not given
`COc1ccc(-c2c/c(=N\C(=S)Nc3cccc([N+](=O)[O-])c3)c3c(O)cc(O[C@@H]4O[C@H](CO)[C@@H](O)[C@H](O)[C@H]4O[C@@H]4O[C@@H](C)[C@H](O)[C@@H](O)[C@H]4O)cc3o2)cc1O` showed an IC50 of 5.2 µM. For `O=C(/C=C/c1ccc(O)c(O)c1)O[C@@H]1C[C@](O)(C(=O)Nc2ccc(-c3ccc(Cl)cc3[N+](=O)[O-])cc2)CC(O)C1O` (some centres not stated), the IC50 was 5.1 µM. `COc1ccc(-c2c/c(=N\C(=O)Oc3ccccc3)c3c(O)cc(O[C@@H]4O[C@H](CO)[C@@H](O)[C@H](O)[C@H]4O[C@@H]4O[C@@H](C)[C@H](O)[C@@H](O)[C@H]4O)cc3o2)cc1O` showed an IC50 of 5.64 µM.

Target: T1, Urease
Experiment: Non-competitive inhibition of jack bean urease assessed as dissociation constant measured upto 10 mins by Lineweaver-Burk plot analysis
Conditions: not given
In the case of `CCCCCCCCCCCCCC(=O)NC(=S)Nc1cccc(Cl)c1`, the Ki is reported as 0.021 µM.

Target: T1, Urease
Experiment: Inhibition of jack bean urease assessed as reduction on ammonia production using urea as substrate preincubated for 15 mins followed by substrate addition and measured after 15 mins by indophenol method
Conditions: not given
`CC(C)NCC(O)COc1ccc(CC(N)=O)cc1` (configuration not stated) [ATENOLOL] showed an IC50 of 64.4 µM.

Test system: not listed separately
Experiment: Inhibition of urease (unknown origin) assessed as reduction on ammonia production using urea as substrate incubated for 15 mins by indophenol reagent based microplate reader assay
Conditions: not given
For `O=C(NNC(=S)Nc1ccc([N+](=O)[O-])cc1)c1ccc(-c2nc3ccccc3s2)cc1`, the IC50 was 1.4 µM.

Target: Urease subunit alpha/Urease subunit beta (Helicobacter pylori (strain ATCC 700392 / 26695) (Campylobacterpylori), UniProt P69996)
Sequence (P69996 whole entry): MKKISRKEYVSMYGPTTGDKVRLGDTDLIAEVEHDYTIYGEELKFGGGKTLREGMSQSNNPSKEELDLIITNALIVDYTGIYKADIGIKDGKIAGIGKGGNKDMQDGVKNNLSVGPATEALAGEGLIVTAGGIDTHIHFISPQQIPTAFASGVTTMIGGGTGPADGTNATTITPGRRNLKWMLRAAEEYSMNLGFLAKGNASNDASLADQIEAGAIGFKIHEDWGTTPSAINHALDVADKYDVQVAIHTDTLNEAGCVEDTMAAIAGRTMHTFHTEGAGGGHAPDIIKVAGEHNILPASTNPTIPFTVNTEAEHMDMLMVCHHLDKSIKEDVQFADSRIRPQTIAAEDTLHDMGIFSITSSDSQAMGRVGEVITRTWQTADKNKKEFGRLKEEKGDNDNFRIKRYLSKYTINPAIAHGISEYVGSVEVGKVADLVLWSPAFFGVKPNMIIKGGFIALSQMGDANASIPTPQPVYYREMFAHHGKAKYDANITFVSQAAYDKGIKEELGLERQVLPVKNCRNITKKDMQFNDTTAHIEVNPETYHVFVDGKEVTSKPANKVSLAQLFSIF
Sequence (P14916 whole entry, further chain): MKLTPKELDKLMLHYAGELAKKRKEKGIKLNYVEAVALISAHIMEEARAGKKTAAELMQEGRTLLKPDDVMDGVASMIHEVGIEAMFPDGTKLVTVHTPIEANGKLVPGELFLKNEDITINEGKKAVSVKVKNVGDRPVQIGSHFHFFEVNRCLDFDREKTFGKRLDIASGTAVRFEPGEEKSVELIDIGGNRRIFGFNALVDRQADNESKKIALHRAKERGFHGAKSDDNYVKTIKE
Experiment: Inhibition of Helicobacter pylori urease
Format: protein-complex assay
Conditions: not given
For `NC(=O)NO` [HYDROXYUREA], the IC50 was 100 µM. With `NC(N)=S` [THIOUREA] the IC50 was 23 µM. Work on `O=C(COc1ccc(CC2C(=O)NC(=O)NC2=O)cc1)Nc1cccc(Cl)c1Cl` yielded an IC50 of 0.69 µM.

Target: T1, Urease
Experiment: Inhibition of jack bean urease
Conditions: not given
For `CCc1nc2cc([N+](=O)[O-])ccc2n1S(=O)(=O)c1ccc(C)cc1`, the IC50 was 31.1 µM. With `O=C1O[C@H]([C@@H](O)CO)C(O)=C1O` [ASCORBIC ACID] the IC50 was 8.59 µM. `COc1cc(C(=O)c2c(O)c3ccccc3oc2=O)cc(OC)c1OC` gave an IC50 of 11.3 µM. `Cc1ncc([N+](=O)[O-])n1Cc1cn(Cc2ccc(F)cc2)nn1` showed an IC50 of 1.97 µM. Compound `CCOc1ccc(NC(=S)N(CC(O)COc2ccc(CC(N)=O)cc2)C(C)C)cc1` (configuration not stated) has an IC50 of 11.7 µM. Compound `Nn1c(-c2ccc(Br)cc2)n[nH]c1=S` has an IC50 of 4.3 µM. In the case of `NNC(=O)c1ccc(C(=O)Cn2nc(-c3ccccc3O)nc2-c2ccccc2O)cc1`, the IC50 is reported as 3.25 µM. `C/C(=N\NC(=S)Nc1cccc([N+](=O)[O-])c1)c1cc2ccccc2o1` gave an IC50 of 0.077 µM. `O=C(/C=C/c1ccc(O)c(O)c1)O[C@@H]1C[C@](O)(C(=O)Nc2ccc(-c3ccc(Cl)cc3[N+](=O)[O-])cc2)CC(O)C1O` (some centres not stated) gave an IC50 of 11 µM. `O=C(Cc1nnn[nH]1)Cn1nc(-c2ccccc2O)nc1-c1ccccc1O` gave an IC50 of 1.27 µM. Compound `CCNC1NN=C(Cn2c(Cc3ccc(F)cc3)nc3ccccc3c2=O)S1` (configuration not stated) has an IC50 of 4.73 µM. Compound `CCNc1cc2c(cc1C)C1(c3cc(C)c(NCC)cc3O2)c2ccccc2C(=O)N1NC(=O)c1ccccc1` has an IC50 of 0.111 µM.
